Article PMC2820250 (Journal of the American Chemical Society, 2009)
Counter-ions that a name gives are not always drawn.

Target: recombinant human BACE-1 (Homo sapiens, UniProt P56817)
Experiment: BACE-1 FRET peptide cleavage assay
Type: biochemical
Details: for IC50, inhibition of cleavage of FRET peptide by BACE-1: FRET peptide with Swedish variant, pH 4.5, 2 h, 25 °C, triplicate; for inhibitory activity against BACE-1 cleavage of FRET peptide, in words: qualitative statement

recombinant human BACE-1, sequence (P56817 46-501): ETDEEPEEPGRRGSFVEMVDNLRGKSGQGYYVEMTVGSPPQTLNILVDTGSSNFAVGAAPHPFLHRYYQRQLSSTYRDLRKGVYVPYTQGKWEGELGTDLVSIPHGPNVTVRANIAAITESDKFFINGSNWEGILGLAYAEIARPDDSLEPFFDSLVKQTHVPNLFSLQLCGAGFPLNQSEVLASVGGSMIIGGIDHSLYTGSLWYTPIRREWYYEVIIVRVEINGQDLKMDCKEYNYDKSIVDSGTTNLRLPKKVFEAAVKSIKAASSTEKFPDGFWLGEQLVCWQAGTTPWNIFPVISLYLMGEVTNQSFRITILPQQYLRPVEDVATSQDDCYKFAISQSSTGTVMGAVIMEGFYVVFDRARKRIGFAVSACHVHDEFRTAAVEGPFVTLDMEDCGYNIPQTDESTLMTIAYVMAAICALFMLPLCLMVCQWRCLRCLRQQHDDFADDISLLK

| IC50, inhibition of cleavage of FRET peptide by BACE-1 [µg/ml] | reduction of potency relative to compound 83 (acetamido moieties instead of N-sulfates) [fold] | inhibitory activity against BACE-1 cleavage of FRET peptide, in words | Compound |
| --- | --- | --- | --- |
| 290 |  |  | NCCCCCO[C@H]1O[C@H](COS(=O)(=O)[O-])[C@@H](O[C@@H]2O[C@H](C(=O)[O-])[C@@H](O[C@H]3O[C@H](COS(=O)(=O)[O-])[C@@H](O[C@@H]4O[C@@H](C(=O)[O-])[C@@H](O)[C@H](O)[C@H]4O)[C@H](O)[C@H]3NS(=O)(=O)[O-])[C@H](O)[C@H]2O)[C@H](O)[C@H]1NS(=O)(=O)[O-].[Na+].[Na+].[Na+].[Na+].[Na+].[Na+] [Compound 81, 5-aminopentyl [(L-α-idopyranosyluronate)-(1→4)-O-(2-deoxy-2-sulfoamino-6-O-sulfonate-α-D-glucopyranoside)-(1→4)-O-(β-D-glucopyranosyluronate)]-(1→4)-2-deoxy-2-sulfoamino-6-O-sulfonate-α-D-glucopyranoside hexasodium salt] |
| 240 |  |  | NCCCCCO[C@H]1O[C@H](COS(=O)(=O)[O-])[C@@H](O[C@@H]2O[C@@H](C(=O)[O-])[C@@H](O[C@H]3O[C@H](COS(=O)(=O)[O-])[C@@H](O[C@@H]4O[C@H](C(=O)[O-])[C@@H](O)[C@H](O)[C@H]4O)[C@H](O)[C@H]3NS(=O)(=O)[O-])[C@H](O)[C@H]2O)[C@H](O)[C@H]1NS(=O)(=O)[O-].[Na+].[Na+].[Na+].[Na+].[Na+].[Na+] [Compound 79] |
| >300 |  |  | CC(=O)N[C@H]1[C@@H](O[C@H]2[C@H](O)[C@@H](O)[C@H](O[C@H]3[C@H](O)[C@@H](NC(C)=O)[C@@H](OCCCCCN)O[C@@H]3COS(=O)(=O)[O-])O[C@H]2C(=O)[O-])O[C@H](COS(=O)(=O)[O-])[C@@H](O[C@@H]2O[C@H](C(=O)[O-])[C@@H](O)[C@H](O)[C@H]2O)[C@@H]1O.[Na+].[Na+].[Na+].[Na+] [Compound 78] |
| 35 | 10 | modest activity | CC(=O)N[C@H]1[C@@H](O[C@H]2[C@H](O)[C@@H](O)[C@H](O[C@H]3[C@H](O)[C@@H](NC(C)=O)[C@@H](OCCCCCN)O[C@@H]3COS(=O)(=O)[O-])O[C@H]2C(=O)[O-])O[C@H](COS(=O)(=O)[O-])[C@@H](O[C@@H]2O[C@@H](C(=O)[O-])[C@@H](O)[C@H](O)[C@H]2O)[C@@H]1O.[Na+].[Na+].[Na+].[Na+] [Compound 82] |
| >300 |  |  | 5-Aminopentyl [(α-L-idopyranosyluronate)-(1→4)-O-(2-acetamido-2-deoxy-6-O-sulfonate-α-D-glucopyranoside)-(1→4)-O-(2-O-sulfonato-α-L-idopyranosyl-uronate)]-(1→4)-2-deoxy-2-acetamido-6-O-sulfonate-α-D-glucopyranoside penta sodium salt [Compound 84] |
| 64 |  |  | NCCCCCOC1OC(COS(=O)(=O)O)C(OC2OC(C(=O)O)C(OC3OC(COS(=O)(=O)O)C(OC4OC(C(=O)O)C(OC5OC(COS(=O)(=O)O)C(OC6OC(C(=O)O)C(O)C(O)C6O)C(O)C5NS(=O)(=O)O)C(O)C4O)C(O)C3NS(=O)(=O)O)C(O)C2O)C(O)C1NS(=O)(=O)O [Compound 69, 5-aminopentyl [(β-D-glucopyranosyluronate)-(1→4)-(2-deoxy-2-sulfoamino-6-O-sulfonato-α-D-glucopyranoside)-(1→4)-O-(α-L-idopyranosyluronate)-(1→4)-O-(2-deoxy-2-sulfoamino-6-O-sulfanate-α-D-glucopyranoside)-(1→4)-(β-D-glucopyranosyluronate)]-(1→4)-O-2-deoxy-N-sulfoamino-6-O-sulfonate-α-D-glucopyranoside nonasodium salt] |
| 104 |  |  | CC(=O)N[C@H]1[C@@H](O[C@H]2[C@H](O)[C@@H](O)[C@H](O[C@H]3[C@H](O)[C@@H](NC(C)=O)[C@@H](OCCCCCN)O[C@@H]3COS(=O)(=O)[O-])O[C@@H]2C(=O)[O-])O[C@H](COS(=O)(=O)[O-])[C@@H](O[C@@H]2O[C@@H](C(=O)[O-])[C@@H](O)[C@H](O)[C@H]2O)[C@@H]1O.[Na+].[Na+].[Na+].[Na+] [Compound 80] |
| 4.6 |  | relatively high potency | NCCCCCO[C@H]1O[C@H](COS(=O)(=O)[O-])[C@@H](O[C@@H]2O[C@@H](C(=O)[O-])[C@@H](O[C@H]3O[C@H](COS(=O)(=O)[O-])[C@@H](O[C@@H]4O[C@@H](C(=O)[O-])[C@@H](O)[C@H](O)[C@H]4O)[C@H](O)[C@H]3NS(=O)(=O)[O-])[C@H](O)[C@H]2O)[C@H](O)[C@H]1NS(=O)(=O)[O-].[Na+].[Na+].[Na+].[Na+].[Na+].[Na+] [Compound 83] |
| >300 |  |  | 5-Aminopentyl [(β-D-glucopyranosyluronate)-(1→4)-O-(2-deoxy-2-sulfamino-6-O-sulfonate-α-D-glucopyranoside)-(1→4)-O-(2-O-sulfonate-α-L-idopyranosyluronate)-(1→4)-2-deoxy-2-sulfoamino-6-O-sulfonate-α-D-glucopyranoside heptasodium salt [Compound 86] |
| 39 |  | modest activity | CC(=O)N[C@H]1[C@@H](O[C@H]2[C@H](O)[C@@H](O)[C@H](O[C@H]3[C@H](O)[C@@H](NC(C)=O)[C@@H](OCCCCCN)O[C@@H]3COS(=O)(=O)[O-])O[C@@H]2C(=O)[O-])O[C@H](COS(=O)(=O)[O-])[C@@H](O[C@@H]2O[C@H](C(=O)[O-])[C@@H](O)[C@H](O)[C@H]2O)[C@@H]1O.[Na+].[Na+].[Na+].[Na+] [Compound 76] |
| 97 |  | modest activity | NCCCCCO[C@H]1O[C@H](COS(=O)(=O)[O-])[C@@H](O[C@@H]2O[C@H](C(=O)[O-])[C@@H](O[C@H]3O[C@H](COS(=O)(=O)[O-])[C@@H](O[C@@H]4O[C@H](C(=O)[O-])[C@@H](O)[C@H](O)[C@H]4O)[C@H](O)[C@H]3NS(=O)(=O)[O-])[C@H](O)[C@H]2O)[C@H](O)[C@H]1NS(=O)(=O)[O-].[Na+].[Na+].[Na+].[Na+].[Na+].[Na+] [Compound 77] |
| 167 |  |  | 5-Aminopentyl [(β-D-glucopyranosyluronate)-(1→4)-O-(2-acetamido-2-deoxy-6-O-sulfonato- α-D-glucopyranoside)-(1→4)-O-(2-O-sulfonato-α-L-idopyranosyluronate)]-(1→4)-2-deoxy-2-acetamido-6-O-sulfonate-α-D-glucopyranoside penta sodium salt [Compound 85] |
